# Reference: article PMC10145310, “Optimization of Ultrasonic-Assisted Extraction of α-Glucosidase Inhibitors from Dryopteris crassirhizoma Using Artificial Neural Network and Response Surface Methodology” (Metabolites, 2023)
# Legend:
# RAW264.7 cells = tested on: RAW264.7 cells; parameters: method as in PMID 34971945; settings: RAW264.7 cells induced with lipopolysaccharide; cited from earlier work
# α-glucosidase = biological target: T1, α-glucosidase (Saccharomyces cerevisiae, UniProt P53341); assay: α-glucosidase inhibition assay (4-nitrophenyl-D-glucopyranoside substrate, 405 nm); type: biochemical; settings: for inhibition at 100 µM: compound at 100 µM, mean ± SEM, triplicate
# T1 construct: purchased Merck (Germany) G5003
# Experimental: The α-glucosidase assay was performed as previously described. First, 130 μL of α-glucosidase (0.16 unit/mL) in 0.1 mM phosphate buffer (pH 6.8) was added to a 96-well plate with 20 μL of test compounds dissolved in dimethylsulfoxide. Then, 50 μL of 1 mM substrate (4-nitrophenyl-D-glucopyranoside) in the buffer was added to the mixture. The intensity of p-nitrophenol converted from 4-nitrophenyl-D-glucopyranoside by α-glucosidase was measured after […] at 405 nm using Infinite 200 PRO spectrophotometer (Tecan, Zürich, Switzerland). (1) Inhibitory activity rate (%)=[(ΔC−ΔS)/ΔC]×100 where ΔC and ΔS are the intensity of control and inhibitor after 20 min, respectively. […] The inhibitory effect was elucidated via triplicate independent experiments. […] Statistical differences were investigated using one-way ANOVA and Duncanʹs test with a p-value < 0.05. SigmaPlot 10.0 (Systat Software Inc., San Jose, CA, USA) was used to analyze the inhibition results.
# β-glucuronidase = biological target: β-glucuronidase; parameters: method as in PMID 36295840; settings: previous studies; cited from earlier work
# PTP1B = tested on: PTP1B; parameters: method as in PMID 34416263; settings: previous studies; cited from earlier work
# [1] = tested on: platelet aggregation induced by collagen; parameters: method as in PMID 31200488; settings: cited from earlier work
# [2] = tested on: platelet aggregation induced by arachidonic acid; parameters: method as in PMID 31200488; settings: cited from earlier work
# SARS-CoV-2 = tested on: SARS-CoV-2; parameters: method as in PMID 35214108; settings: Vero cells, immunofluorescence-based antiviral assays; cited from earlier work
# influenza A virus H1N1 = tested on: influenza A virus H1N1; parameters: method as in PMID 34971945; settings: cited from earlier work
# T1 sequence (P53341 whole entry): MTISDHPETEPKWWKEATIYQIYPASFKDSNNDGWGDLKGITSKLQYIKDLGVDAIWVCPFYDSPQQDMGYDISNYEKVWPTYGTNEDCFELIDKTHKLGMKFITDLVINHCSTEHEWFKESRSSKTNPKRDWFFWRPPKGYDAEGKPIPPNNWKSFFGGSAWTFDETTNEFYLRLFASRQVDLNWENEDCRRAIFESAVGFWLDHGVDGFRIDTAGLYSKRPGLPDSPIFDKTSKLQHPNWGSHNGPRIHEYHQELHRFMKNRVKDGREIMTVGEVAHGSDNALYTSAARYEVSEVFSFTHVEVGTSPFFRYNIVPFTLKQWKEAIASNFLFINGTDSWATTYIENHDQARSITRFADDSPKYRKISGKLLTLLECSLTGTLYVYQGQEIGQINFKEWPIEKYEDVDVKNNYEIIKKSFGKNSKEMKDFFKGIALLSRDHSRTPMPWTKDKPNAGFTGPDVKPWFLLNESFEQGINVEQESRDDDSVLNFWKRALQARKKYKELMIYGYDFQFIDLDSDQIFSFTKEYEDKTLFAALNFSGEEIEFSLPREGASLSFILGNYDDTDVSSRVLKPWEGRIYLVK
compound,measurement,setting,value
3″-epi-dryoptol G,effect on production of nitric oxide and secretion of IL-1β and IL-18,RAW264.7 cells,significant inhibitory effects
"C[C@H]1O[C@H](O[C@H]2[C@H](O)[C@@H](O)[C@@H](O[C@H]3[C@H](O)[C@@H](O)C(O)O[C@@H]3CO)O[C@@H]2CO)[C@H](O)[C@@H](O)[C@@H]1N[C@H]1C=C(CO)[C@@H](O)[C@H](O)[C@H]1O (stereo partly shown) [Acarbose, acarbose]",inhibition at 100 µM,α-glucosidase,21.7 ± 1.43%
"CCC(=O)c1c(O)c(C)c(O)c(CC2=C(O)C(C)(C)C(O)=C(C(C)=O)C2=O)c1O [Compound 1, flavaspidic acid AP]",inhibition at 100 µM,α-glucosidase,< 50%
"CCCC(=O)c1c(O)cc(O)c(Cc2c(O)c(CC3=C(O)C(C)(C)C(O)=C(C(C)=O)C3=O)c(O)c(C(=O)CCC)c2O)c1O [Compound 2, nortrisflavaspidic acid ABB]",IC50,β-glucuronidase,8 ± 1.8 µM
same,IC50,PTP1B,1.19 ± 0.13 µM
same,IC50,α-glucosidase,34 ± 0.14 µM
same,inhibition at 100 µM,α-glucosidase,> 50%
CCCC(=O)c1c(O)cc(O)c(C)c1O [butyryl-3-methylphloroglucinol],"inhibition of platelet aggregation, ratio",[1],92.36%
same,"inhibition of platelet aggregation, ratio",[2],89.51%
dryocrassin ABBA,inhibitory activity against SARS-CoV-2 infection,SARS-CoV-2,dose-dependent inhibitory activity
dryoptol G,effect on production of nitric oxide and secretion of IL-1β and IL-18,RAW264.7 cells,significant inhibitory effects
filixic acid ABA,antiviral effect against influenza A virus H1N1,influenza A virus H1N1,responsible for the antiviral effect
same,inhibitory activity against SARS-CoV-2 infection,SARS-CoV-2,dose-dependent inhibitory activity
